The values below come from US9163010B2, “Indolinone protein kinase inhibitors” (Beta Pharma, Inc., priority 2011, dated 2015).

For series [1] the following is noted: cited from earlier work.
In another series the target is VEGFR-1 (Flt-1) (Homo sapiens (Human), UniProt P17948). Put plainly: Enzymatic activity, VEGFR-1 inhibition in vitro. It is filed as biochemical. As to conditions: read-out: Enzymatic Activities IC50 VEGFR-1 (Flt-1) or VGFR1 FLT1.
The target of another series is VEGFR-2 KDR (Homo sapiens (Human), UniProt P35968). Put plainly: Enzymatic activity, VEGFR-2 inhibition in vitro. It is filed as biochemical. Conditions: read-out: Enzymatic Activities IC50 VEGFR-2 KDR or VGFR2 KDR.
Sequence of VEGFR-2 KDR (P35968 20-1356): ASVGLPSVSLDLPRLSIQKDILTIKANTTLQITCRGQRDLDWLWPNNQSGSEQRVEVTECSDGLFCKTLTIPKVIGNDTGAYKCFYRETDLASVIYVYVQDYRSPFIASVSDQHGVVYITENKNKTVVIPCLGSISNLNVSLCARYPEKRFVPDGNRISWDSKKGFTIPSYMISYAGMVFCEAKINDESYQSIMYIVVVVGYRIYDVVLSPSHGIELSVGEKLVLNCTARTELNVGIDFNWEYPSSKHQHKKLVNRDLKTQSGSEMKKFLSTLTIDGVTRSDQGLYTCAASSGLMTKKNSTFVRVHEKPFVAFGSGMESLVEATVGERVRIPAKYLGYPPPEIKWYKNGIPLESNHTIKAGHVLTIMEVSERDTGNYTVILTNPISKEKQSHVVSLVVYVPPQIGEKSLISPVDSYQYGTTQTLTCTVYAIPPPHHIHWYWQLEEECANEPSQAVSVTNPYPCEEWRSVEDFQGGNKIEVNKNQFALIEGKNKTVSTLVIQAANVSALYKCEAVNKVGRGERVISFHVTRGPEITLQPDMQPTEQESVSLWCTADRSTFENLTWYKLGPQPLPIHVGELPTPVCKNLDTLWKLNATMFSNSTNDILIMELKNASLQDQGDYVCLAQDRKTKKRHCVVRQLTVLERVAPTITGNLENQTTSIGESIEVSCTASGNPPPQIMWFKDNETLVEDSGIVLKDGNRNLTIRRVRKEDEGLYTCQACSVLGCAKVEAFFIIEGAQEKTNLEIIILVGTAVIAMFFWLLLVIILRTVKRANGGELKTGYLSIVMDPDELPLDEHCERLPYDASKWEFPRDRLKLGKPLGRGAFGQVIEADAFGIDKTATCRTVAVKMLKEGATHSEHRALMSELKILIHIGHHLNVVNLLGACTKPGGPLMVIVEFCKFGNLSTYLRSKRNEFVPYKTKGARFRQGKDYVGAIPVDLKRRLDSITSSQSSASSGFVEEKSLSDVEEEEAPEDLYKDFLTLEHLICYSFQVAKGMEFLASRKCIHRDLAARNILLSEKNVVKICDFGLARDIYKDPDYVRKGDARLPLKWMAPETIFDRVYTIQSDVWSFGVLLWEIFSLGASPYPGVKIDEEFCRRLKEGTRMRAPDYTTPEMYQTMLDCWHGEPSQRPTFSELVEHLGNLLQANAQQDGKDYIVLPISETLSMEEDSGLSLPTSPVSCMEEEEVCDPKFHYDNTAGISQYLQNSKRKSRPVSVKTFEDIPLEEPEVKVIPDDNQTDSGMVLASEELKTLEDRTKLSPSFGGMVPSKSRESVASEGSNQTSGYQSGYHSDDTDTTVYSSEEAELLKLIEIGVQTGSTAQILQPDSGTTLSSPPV
Another series addresses VEGFR-3 (Flt-4) (Homo sapiens (Human), UniProt P35916). Put plainly: Enzymatic activity, VEGFR-3 inhibition in vitro. In kind it is biochemical.

Sequence of VEGFR-3 (Flt-4) (P35916 25-1363): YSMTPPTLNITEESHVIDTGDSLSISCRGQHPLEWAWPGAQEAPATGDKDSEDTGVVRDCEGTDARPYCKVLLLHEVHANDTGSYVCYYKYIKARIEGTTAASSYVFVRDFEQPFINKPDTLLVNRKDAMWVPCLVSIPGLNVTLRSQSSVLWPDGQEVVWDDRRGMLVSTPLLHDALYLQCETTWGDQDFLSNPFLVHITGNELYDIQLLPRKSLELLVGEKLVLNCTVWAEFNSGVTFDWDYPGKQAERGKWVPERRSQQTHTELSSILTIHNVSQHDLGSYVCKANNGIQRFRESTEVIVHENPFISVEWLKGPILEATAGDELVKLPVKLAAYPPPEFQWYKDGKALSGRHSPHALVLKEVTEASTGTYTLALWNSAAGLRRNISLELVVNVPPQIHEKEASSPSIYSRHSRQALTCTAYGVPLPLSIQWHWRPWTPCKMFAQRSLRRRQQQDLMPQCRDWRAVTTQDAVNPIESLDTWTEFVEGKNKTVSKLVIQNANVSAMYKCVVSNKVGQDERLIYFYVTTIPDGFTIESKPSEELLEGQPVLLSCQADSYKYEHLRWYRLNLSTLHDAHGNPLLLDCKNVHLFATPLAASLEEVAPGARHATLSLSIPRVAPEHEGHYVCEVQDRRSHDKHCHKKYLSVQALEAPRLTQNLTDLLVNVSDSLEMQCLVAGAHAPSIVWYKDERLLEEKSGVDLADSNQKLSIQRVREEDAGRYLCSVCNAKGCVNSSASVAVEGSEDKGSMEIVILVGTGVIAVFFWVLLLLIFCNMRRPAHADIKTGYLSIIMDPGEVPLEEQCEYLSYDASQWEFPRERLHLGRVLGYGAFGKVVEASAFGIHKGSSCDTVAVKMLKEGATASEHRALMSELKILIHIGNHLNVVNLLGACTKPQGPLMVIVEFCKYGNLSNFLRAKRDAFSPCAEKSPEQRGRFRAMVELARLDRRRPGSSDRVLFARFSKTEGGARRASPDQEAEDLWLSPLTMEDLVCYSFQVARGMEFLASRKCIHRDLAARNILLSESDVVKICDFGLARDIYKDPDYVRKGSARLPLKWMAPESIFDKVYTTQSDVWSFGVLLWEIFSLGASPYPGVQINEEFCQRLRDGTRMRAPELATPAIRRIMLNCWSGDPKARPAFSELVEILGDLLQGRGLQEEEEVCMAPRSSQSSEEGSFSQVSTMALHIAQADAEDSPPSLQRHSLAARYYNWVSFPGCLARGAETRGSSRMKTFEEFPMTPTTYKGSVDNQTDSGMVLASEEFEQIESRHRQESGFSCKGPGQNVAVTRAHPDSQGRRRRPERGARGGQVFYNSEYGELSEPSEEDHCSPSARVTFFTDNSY
Sequence of VEGFR-1 (Flt-1) (P17948 27-1338): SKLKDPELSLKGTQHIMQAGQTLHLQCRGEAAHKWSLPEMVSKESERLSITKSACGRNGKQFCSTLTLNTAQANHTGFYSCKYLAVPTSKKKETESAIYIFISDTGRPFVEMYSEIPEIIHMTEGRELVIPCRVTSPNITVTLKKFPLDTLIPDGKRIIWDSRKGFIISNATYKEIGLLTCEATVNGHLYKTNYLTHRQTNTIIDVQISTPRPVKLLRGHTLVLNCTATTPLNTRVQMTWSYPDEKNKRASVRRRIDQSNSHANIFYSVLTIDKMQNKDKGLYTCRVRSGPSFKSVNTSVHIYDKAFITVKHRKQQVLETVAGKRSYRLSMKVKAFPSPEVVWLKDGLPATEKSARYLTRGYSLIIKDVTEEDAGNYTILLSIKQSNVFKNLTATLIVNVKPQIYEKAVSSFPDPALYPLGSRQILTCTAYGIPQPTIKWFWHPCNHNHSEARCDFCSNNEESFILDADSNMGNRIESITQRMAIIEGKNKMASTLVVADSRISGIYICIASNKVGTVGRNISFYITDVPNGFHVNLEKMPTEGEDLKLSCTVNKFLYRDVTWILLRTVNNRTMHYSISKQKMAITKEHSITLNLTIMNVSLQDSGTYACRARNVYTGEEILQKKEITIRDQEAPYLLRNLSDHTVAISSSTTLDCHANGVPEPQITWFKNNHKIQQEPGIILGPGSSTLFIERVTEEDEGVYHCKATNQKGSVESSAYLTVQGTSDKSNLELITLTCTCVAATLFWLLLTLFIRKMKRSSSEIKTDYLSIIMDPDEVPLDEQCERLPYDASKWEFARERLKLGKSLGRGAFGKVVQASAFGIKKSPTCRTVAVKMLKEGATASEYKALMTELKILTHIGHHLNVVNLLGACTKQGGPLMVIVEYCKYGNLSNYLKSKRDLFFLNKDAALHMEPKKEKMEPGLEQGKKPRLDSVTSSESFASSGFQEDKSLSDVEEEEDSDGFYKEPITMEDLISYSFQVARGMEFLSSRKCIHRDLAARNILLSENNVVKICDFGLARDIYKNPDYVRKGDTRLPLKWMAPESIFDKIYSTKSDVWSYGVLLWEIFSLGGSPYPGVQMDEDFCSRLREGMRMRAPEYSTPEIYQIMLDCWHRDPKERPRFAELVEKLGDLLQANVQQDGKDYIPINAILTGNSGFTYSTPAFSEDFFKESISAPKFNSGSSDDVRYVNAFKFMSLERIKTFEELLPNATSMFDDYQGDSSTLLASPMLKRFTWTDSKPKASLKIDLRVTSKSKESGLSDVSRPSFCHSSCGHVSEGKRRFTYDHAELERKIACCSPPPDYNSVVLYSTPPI

In the case of `CCN(CC)CCNC(=O)c1c(C)[nH]c(/C=C2\C(=O)Nc3ccc(F)cc32)c1C` [Sunitinib, sunitinib], the “Patients in whom dose reductions were required to manage toxicities” value in series [1] (patients studied in RCC) is 50%. Besides, in series [1] (sunitinib therapy, patients), the “Serious (grade 3 or 4) adverse events, share of patients” value is given as “up to 10%”.

The term IC50 denotes the point on the concentration scale where inhibition reaches its midpoint. Turning to `Cc1[nH]c(/C=C2\C(=O)Nc3ccc(F)cc32)c(C)c1C(=O)N1CCOCCOCCOCC1` [Formula II], the values for the 50% inhibitory concentration (IC50) on VEGFR-1 (Flt-1) and on VEGFR-2 KDR were 40 nM and 2.5 nM, respectively. On VEGFR-3 (Flt-4), the “Enzymatic Activities IC50 VEGFR-3 (Flt-4) or VGFR3 FLT4” value was “No Inhibition”.
